# Legend:
# Type in all cases: functional
# Staphylococcus aureus [1] = experiment: Antibacterial activity against methicillin-resistant Staphylococcus aureus 1012029 clinical isolate after 20 to 24 hrs by two-fold microdilution method
# Staphylococcus aureus [2] = experiment: Antibacterial activity against methicillin-resistant Staphylococcus aureus 614019 clinical isolate after 20 to 24 hrs by two-fold microdilution method
# Staphylococcus aureus [3] = experiment: Antibacterial activity against methicillin-resistant Staphylococcus aureus 214026 clinical isolate after 20 to 24 hrs by two-fold microdilution method
# Staphylococcus aureus [4] = experiment: Antibacterial activity against methicillin-resistant Staphylococcus aureus 316038 clinical isolate after 20 to 24 hrs by two-fold microdilution method
# Staphylococcus aureus [5] = experiment: Antibacterial activity against methicillin-resistant Staphylococcus aureus 11703 clinical isolate after 20 to 24 hrs by two-fold microdilution method
# Staphylococcus aureus [6] = experiment: Antibacterial activity against methicillin-resistant Staphylococcus aureus 829034 clinical isolate after 20 to 24 hrs by two-fold microdilution method
# Staphylococcus aureus [7] = experiment: Antibacterial activity against methicillin-resistant Staphylococcus aureus 814039 clinical isolate after 20 to 24 hrs by two-fold microdilution method
# Staphylococcus aureus [8] = experiment: Antibacterial activity against methicillin-resistant Staphylococcus aureus 202045 clinical isolate after 20 to 24 hrs by two-fold microdilution method
# Staphylococcus aureus [9] = experiment: Antibacterial activity against methicillin-resistant Staphylococcus aureus 519030 clinical isolate after 20 to 24 hrs by two-fold microdilution method
# Staphylococcus aureus [10] = experiment: Antibacterial activity against methicillin-resistant Staphylococcus aureus clinical isolate after 20 to 24 hrs by two-fold microdilution method
# Staphylococcus aureus [11] = experiment: Antibacterial activity against methicillin-resistant Staphylococcus aureus 122045 clinical isolate after 20 to 24 hrs by two-fold microdilution method
# Staphylococcus aureus [12] = experiment: Antibacterial activity against methicillin-resistant Staphylococcus aureus 1019240 clinical isolate after 20 to 24 hrs by two-fold microdilution method
# Staphylococcus aureus [13] = experiment: Antibacterial activity against methicillin-resistant Staphylococcus aureus 109016 clinical isolate after 20 to 24 hrs by two-fold microdilution method
# Staphylococcus aureus [14] = experiment: Antibacterial activity against methicillin-resistant Staphylococcus aureus 1012039 clinical isolate after 20 to 24 hrs by two-fold microdilution method
# Staphylococcus aureus [15] = experiment: Antibacterial activity against methicillin-resistant Staphylococcus aureus 1024010 clinical isolate after 20 to 24 hrs by two-fold microdilution method
# Staphylococcus aureus [16] = experiment: Antibacterial activity against methicillin-resistant Staphylococcus aureus 518036 clinical isolate after 20 to 24 hrs by two-fold microdilution method
# Staphylococcus aureus [17] = experiment: Antibacterial activity against methicillin-resistant Staphylococcus aureus 908046 clinical isolate after 20 to 24 hrs by two-fold microdilution method
# Staphylococcus aureus [18] = experiment: Antibacterial activity against methicillin-resistant Staphylococcus aureus 1026021 clinical isolate after 20 to 24 hrs by two-fold microdilution method
# Staphylococcus aureus [19] = experiment: Antibacterial activity against methicillin-resistant Staphylococcus aureus 120827 clinical isolate after 20 to 24 hrs by two-fold microdilution method
# Staphylococcus aureus [20] = experiment: Antibacterial activity against methicillin-resistant Staphylococcus aureus 530231 clinical isolate after 20 to 24 hrs by two-fold microdilution method
# Staphylococcus aureus [21] = experiment: Antibacterial activity against methicillin-resistant Staphylococcus aureus 1216052 clinical isolate after 20 to 24 hrs by two-fold microdilution method
# Staphylococcus aureus [22] = experiment: Antibacterial activity against methicillin-resistant Staphylococcus aureus 121969 clinical isolate after 20 to 24 hrs by two-fold microdilution method
# Staphylococcus aureus [23] = experiment: Antibacterial activity against methicillin-resistant Staphylococcus aureus 224001 clinical isolate after 20 to 24 hrs by two-fold microdilution method
# Staphylococcus aureus [24] = experiment: Antibacterial activity against methicillin-resistant Staphylococcus aureus 12308 clinical isolate after 20 to 24 hrs by two-fold microdilution method
# Staphylococcus aureus [25] = experiment: Antibacterial activity against methicillin-resistant Staphylococcus aureus 110834 clinical isolate after 20 to 24 hrs by two-fold microdilution method
# Staphylococcus aureus [26] = experiment: Antibacterial activity against methicillin-resistant Staphylococcus aureus 1214023 clinical isolate after 20 to 24 hrs by two-fold microdilution method
# Staphylococcus aureus [27] = experiment: Antibacterial activity against methicillin-resistant Staphylococcus aureus GLH15 clinical isolate after 20 to 24 hrs by two-fold microdilution method
# Staphylococcus aureus [28] = experiment: Antibacterial activity against methicillin-resistant Staphylococcus aureus 110414 clinical isolate after 20 to 24 hrs by two-fold microdilution method
# Staphylococcus aureus [29] = experiment: Antibacterial activity against methicillin-resistant Staphylococcus aureus 3250299 clinical isolate after 20 to 24 hrs by two-fold microdilution method
# Staphylococcus aureus [30] = experiment: Antibacterial activity against methicillin-resistant Staphylococcus aureus GLH14 clinical isolate after 20 to 24 hrs by two-fold microdilution method
# Staphylococcus aureus [31] = experiment: Antibacterial activity against methicillin-resistant Staphylococcus aureus 215073 clinical isolate after 20 to 24 hrs by two-fold microdilution method
# Staphylococcus aureus [32] = experiment: Antibacterial activity against methicillin-resistant Staphylococcus aureus 304243 clinical isolate after 20 to 24 hrs by two-fold microdilution method
# Staphylococcus aureus [33] = experiment: Antibacterial activity against methicillin-resistant Staphylococcus aureus 112430 clinical isolate after 20 to 24 hrs by two-fold microdilution method
# Staphylococcus aureus [34] = experiment: Antibacterial activity against methicillin-resistant Staphylococcus aureus 822030 clinical isolate after 20 to 24 hrs by two-fold microdilution method
# Staphylococcus aureus [35] = experiment: Antibacterial activity against methicillin-resistant Staphylococcus aureus 221022 clinical isolate after 20 to 24 hrs by two-fold microdilution method
# Staphylococcus aureus [36] = experiment: Antibacterial activity against methicillin-resistant Staphylococcus aureus 1023043 clinical isolate after 20 to 24 hrs by two-fold microdilution method
# Staphylococcus aureus [37] = experiment: Antibacterial activity against methicillin-resistant Staphylococcus aureus 221014 clinical isolate after 20 to 24 hrs by two-fold microdilution method
# Staphylococcus aureus [38] = experiment: Antibacterial activity against methicillin-resistant Staphylococcus aureus 216054 clinical isolate after 20 to 24 hrs by two-fold microdilution method
# Staphylococcus aureus [39] = experiment: Antibacterial activity against methicillin-resistant Staphylococcus aureus 20534 clinical isolate after 20 to 24 hrs by two-fold microdilution method
# Staphylococcus aureus [40] = experiment: Antibacterial activity against methicillin-resistant Staphylococcus aureus 110328-1 clinical isolate after 20 to 24 hrs by two-fold microdilution method
# Staphylococcus aureus [41] = experiment: Antibacterial activity against methicillin-resistant Staphylococcus aureus 111625 clinical isolate after 20 to 24 hrs by two-fold microdilution method
# Staphylococcus aureus [42] = experiment: Antibacterial activity against methicillin-resistant Staphylococcus aureus 919205 clinical isolate after 20 to 24 hrs by two-fold microdilution method
# Staphylococcus aureus [43] = experiment: Antibacterial activity against methicillin-resistant Staphylococcus aureus 519028 clinical isolate after 20 to 24 hrs by two-fold microdilution method
# Staphylococcus aureus [44] = experiment: Antibacterial activity against methicillin-resistant Staphylococcus aureus 102849 clinical isolate after 20 to 24 hrs by two-fold microdilution method
# Staphylococcus aureus [45] = experiment: Antibacterial activity against methicillin-resistant Staphylococcus aureus 414244 clinical isolate after 20 to 24 hrs by two-fold microdilution method
# Staphylococcus aureus [46] = experiment: Antibacterial activity against methicillin-resistant Staphylococcus aureus 10844 clinical isolate after 20 to 24 hrs by two-fold microdilution method
# Staphylococcus aureus [47] = experiment: Antibacterial activity against methicillin-resistant Staphylococcus aureus 1113041 clinical isolate after 20 to 24 hrs by two-fold microdilution method
structure (smiles),measurement,setting,value
O=C1c2cccnc2C(=O)c2c1c(C(=O)OCCCCCN1CCOCC1)c1ccc(Br)cn21,MIC,Staphylococcus aureus [1],≤ 0.0078 µg/mL
same,MIC,Staphylococcus aureus [2],0.031 µg/mL
same,MIC,Staphylococcus aureus [3],0.063 µg/mL
same,MIC,Staphylococcus aureus [4],0.031 µg/mL
same,MIC,Staphylococcus aureus [5],0.063 µg/mL
same,MIC,Staphylococcus aureus [6],0.125 µg/mL
same,MIC,Staphylococcus aureus [7],0.125 µg/mL
same,MIC,Staphylococcus aureus [8],0.016 µg/mL
same,MIC,Staphylococcus aureus [9],0.063 µg/mL
same,MIC50,Staphylococcus aureus [10],0.031 µg/mL
same,MIC90,Staphylococcus aureus [10],0.125 µg/mL
same,MIC,Staphylococcus aureus [11],0.063 µg/mL
same,MIC,Staphylococcus aureus [12],0.031 µg/mL
same,MIC,Staphylococcus aureus [13],≤ 0.0078 µg/mL
same,MIC,Staphylococcus aureus [14],0.125 µg/mL
same,MIC,Staphylococcus aureus [15],0.031 µg/mL
same,MIC,Staphylococcus aureus [16],0.063 µg/mL
same,MIC,Staphylococcus aureus [17],0.031 µg/mL
same,MIC,Staphylococcus aureus [18],16 µg/mL
same,MIC,Staphylococcus aureus [19],≤ 0.0078 µg/mL
same,MIC,Staphylococcus aureus [20],0.031 µg/mL
same,MIC,Staphylococcus aureus [21],16 µg/mL
same,MIC,Staphylococcus aureus [22],0.063 µg/mL
same,MIC,Staphylococcus aureus [23],0.25 µg/mL
same,MIC,Staphylococcus aureus [24],≤ 0.0078 µg/mL
same,MIC,Staphylococcus aureus [25],0.031 µg/mL
same,MIC,Staphylococcus aureus [26],0.125 µg/mL
same,MIC,Staphylococcus aureus [27],0.031 µg/mL
same,MIC,Staphylococcus aureus [28],0.031 µg/mL
same,MIC,Staphylococcus aureus [29],0.031 µg/mL
same,MIC,Staphylococcus aureus [30],0.031 µg/mL
same,MIC,Staphylococcus aureus [31],≤ 0.0078 µg/mL
same,MIC,Staphylococcus aureus [32],0.031 µg/mL
same,MIC,Staphylococcus aureus [33],≤ 0.0078 µg/mL
same,MIC,Staphylococcus aureus [34],0.031 µg/mL
same,MIC,Staphylococcus aureus [35],0.031 µg/mL
same,MIC,Staphylococcus aureus [36],0.031 µg/mL
same,MIC,Staphylococcus aureus [37],0.031 µg/mL
same,MIC,Staphylococcus aureus [38],0.063 µg/mL
same,MIC,Staphylococcus aureus [39],0.125 µg/mL
same,MIC,Staphylococcus aureus [40],0.031 µg/mL
same,MIC,Staphylococcus aureus [41],≤ 0.0078 µg/mL
same,MIC,Staphylococcus aureus [42],0.016 µg/mL
same,MIC,Staphylococcus aureus [43],≤ 0.0078 µg/mL
same,MIC,Staphylococcus aureus [44],0.063 µg/mL
same,MIC,Staphylococcus aureus [45],0.063 µg/mL
same,MIC,Staphylococcus aureus [46],≤ 0.0078 µg/mL
same,MIC,Staphylococcus aureus [47],≤ 0.0078 µg/mL
O=C1c2cccnc2C(=O)c2c1c(C(=O)OCCCCCCN1CCCCC1)c1ccc(Br)cn21,MIC,Staphylococcus aureus [1],0.063 µg/mL
same,MIC,Staphylococcus aureus [2],0.063 µg/mL
same,MIC,Staphylococcus aureus [3],≤ 0.0078 µg/mL
same,MIC,Staphylococcus aureus [4],0.031 µg/mL
same,MIC,Staphylococcus aureus [5],0.063 µg/mL
same,MIC,Staphylococcus aureus [6],0.25 µg/mL
same,MIC,Staphylococcus aureus [7],0.25 µg/mL
same,MIC,Staphylococcus aureus [8],≤ 0.0078 µg/mL
same,MIC,Staphylococcus aureus [9],0.063 µg/mL
same,MIC50,Staphylococcus aureus [10],0.063 µg/mL
same,MIC90,Staphylococcus aureus [10],0.125 µg/mL
same,MIC,Staphylococcus aureus [11],0.031 µg/mL
same,MIC,Staphylococcus aureus [12],0.125 µg/mL
same,MIC,Staphylococcus aureus [13],0.031 µg/mL
same,MIC,Staphylococcus aureus [14],0.063 µg/mL
same,MIC,Staphylococcus aureus [15],0.063 µg/mL
same,MIC,Staphylococcus aureus [16],0.125 µg/mL
same,MIC,Staphylococcus aureus [17],0.031 µg/mL
same,MIC,Staphylococcus aureus [18],16 µg/mL
same,MIC,Staphylococcus aureus [19],0.031 µg/mL
same,MIC,Staphylococcus aureus [20],0.125 µg/mL
same,MIC,Staphylococcus aureus [21],> 16 µg/mL
same,MIC,Staphylococcus aureus [22],0.063 µg/mL
same,MIC,Staphylococcus aureus [23],0.125 µg/mL
same,MIC,Staphylococcus aureus [24],0.063 µg/mL
same,MIC,Staphylococcus aureus [25],0.063 µg/mL
same,MIC,Staphylococcus aureus [26],≤ 0.0078 µg/mL
same,MIC,Staphylococcus aureus [27],0.063 µg/mL
same,MIC,Staphylococcus aureus [28],0.031 µg/mL
same,MIC,Staphylococcus aureus [29],0.063 µg/mL
same,MIC,Staphylococcus aureus [30],0.063 µg/mL
same,MIC,Staphylococcus aureus [31],0.016 µg/mL
same,MIC,Staphylococcus aureus [32],0.016 µg/mL
same,MIC,Staphylococcus aureus [33],0.063 µg/mL
same,MIC,Staphylococcus aureus [34],0.125 µg/mL
same,MIC,Staphylococcus aureus [35],0.125 µg/mL
same,MIC,Staphylococcus aureus [36],0.125 µg/mL
same,MIC,Staphylococcus aureus [37],0.125 µg/mL
same,MIC,Staphylococcus aureus [38],≤ 0.0078 µg/mL
same,MIC,Staphylococcus aureus [39],0.125 µg/mL
same,MIC,Staphylococcus aureus [40],0.125 µg/mL
same,MIC,Staphylococcus aureus [41],0.063 µg/mL
same,MIC,Staphylococcus aureus [42],0.063 µg/mL
same,MIC,Staphylococcus aureus [43],0.125 µg/mL
same,MIC,Staphylococcus aureus [44],0.063 µg/mL
same,MIC,Staphylococcus aureus [45],0.063 µg/mL
same,MIC,Staphylococcus aureus [46],0.063 µg/mL
same,MIC,Staphylococcus aureus [47],0.031 µg/mL
